Results published in patent US20230009626A1 (ICHNOS SCIENCES S.A., priority 2018, published 2023).

Biological target: HPK1 (MAP4K1) (Homo sapiens, UniProt Q92918)
Assay: FRET Assay for HPK1 (MAP4K1): one step binding assay, displacement of labeled tracer
Conditions: for inhibition at 1 µM: 1 μM compound; for inhibition at 1 µM / inhibition at 10 µM: FRET ratio 665/620, percent of control; for inhibition at 10 µM: 10 μM compound; for IC50: dose response curve, nonlinear regression
How it was run: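 TR-FRET tracer-displacement binding assay. GST-tagged HPK1 (10 nM) and Eu-anti-GST antibody (4 nM) were pre-incubated with compound on ice for 15 min in 50 mM HEPES pH 7.5, 10 mM MgCl2, 1 mM EGTA, 0.01% Brij-35 (3% DMSO final). Kinase Tracer 222 (20 nM) was then added for 1 h at room temperature. IC50 came from nonlinear regression of percent of control; percent inhibition was also given at 1.0 and 10.0 μM.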

Chain of HPK1 (MAP4K1) (Q92918 whole entry): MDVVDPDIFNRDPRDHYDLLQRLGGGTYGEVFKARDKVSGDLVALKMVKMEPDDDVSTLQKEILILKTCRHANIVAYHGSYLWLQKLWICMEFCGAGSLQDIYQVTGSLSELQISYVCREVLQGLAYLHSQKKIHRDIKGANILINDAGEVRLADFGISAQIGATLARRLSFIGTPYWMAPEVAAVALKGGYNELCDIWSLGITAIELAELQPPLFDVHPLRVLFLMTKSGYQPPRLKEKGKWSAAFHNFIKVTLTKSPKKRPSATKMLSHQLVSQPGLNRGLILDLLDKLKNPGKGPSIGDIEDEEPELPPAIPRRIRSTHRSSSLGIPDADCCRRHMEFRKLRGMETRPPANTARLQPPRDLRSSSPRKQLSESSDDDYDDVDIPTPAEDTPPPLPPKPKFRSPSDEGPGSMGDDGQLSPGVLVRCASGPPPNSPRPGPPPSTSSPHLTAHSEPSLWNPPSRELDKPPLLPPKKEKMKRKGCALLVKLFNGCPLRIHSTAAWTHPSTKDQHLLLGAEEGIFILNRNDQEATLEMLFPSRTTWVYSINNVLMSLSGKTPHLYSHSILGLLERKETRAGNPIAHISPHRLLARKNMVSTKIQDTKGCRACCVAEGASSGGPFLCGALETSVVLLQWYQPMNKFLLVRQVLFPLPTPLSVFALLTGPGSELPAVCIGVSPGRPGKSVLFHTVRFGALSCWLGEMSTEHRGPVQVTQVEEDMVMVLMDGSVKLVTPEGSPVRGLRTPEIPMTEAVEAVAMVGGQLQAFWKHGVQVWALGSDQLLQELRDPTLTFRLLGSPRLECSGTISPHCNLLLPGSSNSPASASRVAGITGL

Row | inhibition at 1 µM [%] | inhibition at 10 µM [%] | IC50 [nM] | SMILES
1 | 78.4 | 83.3 | < 50 | CNC(=O)C(C)(C)n1ccc(N/C(C)=C2\C(=O)Nc3cnc(-c4cnccc4C)cc32)n1 [Example 118, (Z)-N,2-dimethyl-2-(3-((1-(5-(4-methylpyridin-3-yl)-2-oxo-1H-pyrrolo[2,3-c]pyridin-3(2H)-ylidene)ethyl)amino)-1H-pyrazol-1-yl)propanamide]
2 | 78.9 | 85.7 | < 50 | C/C(Nc1ccn(C)n1)=C1/C(=O)Nc2cnc(-c3c(C)cccc3F)cc21 [Example 121, (Z)-5-(2-Fluoro-6-methylphenyl)-3-(1-((1-methyl-1H-pyrazol-3-yl)amino)ethylidene)-1H-pyrrolo[2,3-c]pyridin-2(3H)-one]
3 | 79.2 | 89.8 | < 50 | C/C(Nc1ccn(CC(=O)N(C)C)n1)=C1/C(=O)Nc2cnc(-c3cnccc3C)cc21 [Example 128, (Z)-N,N-Dimethyl-2-(3-((1-(5-(4-methylpyridin-3-yl)-2-oxo-1H-pyrrolo[2,3-c]pyridin-3(2H)-ylidene)ethyl)amino)-1H-pyrazol-1-yl)acetamide]
4 | 79.9 | 88 | < 50 | C/C(Nc1ccn(C[C@H](C)O)n1)=C1/C(=O)Nc2cnc(-c3cnccc3C)cc21 [Example 133, (S,Z)-3-(1-((1-(2-Hydroxypropyl)-1H-pyrazol-3-yl)amino)ethylidene)-5-(4-methylpyridin-3-yl)-1H-pyrrolo[2,3-c]pyridin-2(3H)-one]
5 | 83.6 | 85.2 | < 50 | C/C(Nc1ccn([C@@H](C)CO)n1)=C1/C(=O)Nc2cnc(-c3cnccc3C)cc21 [Example 134, (S,Z)-3-(1-((1-(1-Hydroxypropan-2-yl)-1H-pyrazol-3-yl)amino)ethylidene)-5-(4-methylpyridin-3-yl)-1H-pyrrolo[2,3-c]pyridin-2(3H)-one]
6 | 82.3 | 78.9 | < 50 | C/C(Nc1ccn(C[C@@H](C)O)n1)=C1/C(=O)Nc2cnc(-c3cnccc3C)cc21 [Example 136, (R,Z)-3-(1-((1-(2-Hydroxypropyl)-1H-pyrazol-3-yl)amino)ethylidene)-5-(4-methylpyridin-3-yl)-1H-pyrrolo[2,3-c]pyridin-2(3H)-one]
7 | 80.7 | 80.2 | < 50 | C/C(Nc1ccn([C@H](C)CO)n1)=C1/C(=O)Nc2cnc(-c3cnccc3C)cc21 [Example 137, (R,Z)-3-(1-((1-(1-Hydroxypropan-2-yl)-1H-pyrazol-3-yl)amino)ethylidene)-5-(4-methylpyridin-3-yl)-1H-pyrrolo[2,3-c]pyridin-2(3H)-one]
8 | 80 | 85.9 | 50 to 100 | C/C(Nc1ccn(CC(C)(C)O)n1)=C1/C(=O)Nc2cnc(-c3c(C)cccc3F)cc21 [Example 141, (Z)-5-(2-Fluoro-6-methylphenyl)-3-(1-((1-(2-hydroxy-2-methylpropyl)-1H-pyrazol-3-yl)amino)ethylidene)-1H-pyrrolo[2,3-c]pyridin-2(3H)-one]
9 | 77.9 | 80.8 | < 50 | C/C(Nc1ccn(C(C)(C)C#N)n1)=C1/C(=O)Nc2cnc(-c3c(C)cccc3F)cc21 [Example 142, (Z)-2-(3-((1-(5-(2-Fluoro-6-methylphenyl)-2-oxo-1H-pyrrolo[2,3-c]pyridin-3(2H)-ylidene)ethyl)amino)-1H-pyrazol-1-yl)-2-methylpropanenitrile]

More lines, now with the values behind:

Row | SMILES | inhibition at 1 µM [%] | inhibition at 10 µM [%] | IC50 [nM]
10 | COc1cccc(F)c1-c1cc2c(cn1)NC(=O)/C2=C(/C)Nc1ccc(N(C)C)nc1 [Example 117, (Z)-3-(1-((6-(Dimethylamino)pyridin-3-yl)amino)ethylidene)-5-(2-fluoro-6-methoxyphenyl)-1H-pyrrolo[2,3-c]pyridin-2(3H)-one] | 54.8 | 56.4 | 
11 | C/C(Nc1c(C)nn(C)c1C)=C1/C(=O)Nc2cnc(-c3cnccc3C)cc21 [Example 119, (Z)-5-(4-Methylpyridin-3-yl)-3-(1-((1,3,5-trimethyl-1H-pyrazol-4-yl)amino)ethylidene)-1H-pyrrolo[2,3-c]pyridin-2(3H)-one] | 52.6 | 67 | > 500
12 | CC(=O)N1CC(n2ccc(N/C(C)=C3\C(=O)Nc4cnc(-c5cnccc5C)cc43)n2)C1 [Example 120, (Z)-3-(1-((1-(1-Acetylazetidin-3-yl)-1H-pyrazol-3-yl)amino)ethylidene)-5-(4-methylpyridin-3-yl)-1H-pyrrolo[2,3-c]pyridin-2(3H)-one] | 2.17 | 49 | 
13 | C/C(Nc1cc[nH]n1)=C1/C(=O)Nc2cnc(-c3cnccc3C)cc21 [Example 122, (Z)-3-(1-((1H-Pyrazol-3-yl)amino)ethylidene)-5-(4-methylpyridin-3-yl)-1H-pyrrolo[2,3-c]pyridin-2(3H)-one] | 87.3 | 92.6 | < 50
14 | C/C(Nc1ccc(C)nc1)=C1/C(=O)Nc2cnc(-c3cnccc3C)cc21 [Example 123, (Z)-5-(4-Methylpyridin-3-yl)-3-(1-((6-methylpyridin-3-yl)amino)ethylidene)-1H-pyrrolo[2,3-c]pyridin-2(3H)-one] | 81.8 | 88.2 | < 50
15 | COc1cccc(F)c1-c1cc2c(cn1)NC(=O)/C2=C(/C)Nc1ccc(N2CCNCC2)cn1 [Example 124, (Z)-5-(2-Fluoro-6-methoxyphenyl)-3-(1-((5-(piperazin-1-yl)pyridin-2-yl)amino)ethylidene)-1H-pyrrolo[2,3-c]pyridin-2(3H)-one] | 79.6 | 89.7 | < 50
16 | COc1cccc(F)c1-c1cc2c(cn1)NC(=O)/C2=C(/C)Nc1ccc(N2CCNCC2)nc1 [Example 125, (Z)-5-(2-Fluoro-6-methoxyphenyl)-3-(1-((6-(piperazin-1-yl)pyridin-3-yl)amino)ethylidene)-1H-pyrrolo[2,3-c]pyridin-2(3H)-one] | 77.7 | 84.2 | < 50
17 | C/C(Nc1cc2n(n1)CC(=O)N(C)C2)=C1/C(=O)Nc2cnc(-c3cnccc3C)cc21 [Example 126, (Z)-5-Methyl-2-((1-(5-(4-methylpyridin-3-yl)-2-oxo-1H-pyrrolo[2,3-c]pyridin-3(2H)-ylidene)ethyl)amino)-4,5-dihydropyrazolo[1,5-a]pyrazin-6(7H)-one] | 82.4 |  | < 50
18 | C/C(Nc1cc2n(n1)CCN(C)C2=O)=C1/C(=O)Nc2cnc(-c3cnccc3C)cc21 [Example 127, (Z)-5-Methyl-2-((1-(5-(4-methylpyridin-3-yl)-2-oxo-1H-pyrrolo[2,3-c]pyridin-3(2H)-ylidene)ethyl)amino)-6,7-dihydropyrazolo[1,5-a]pyrazin-4(5H)-onc] | 75.1 | 81.5 | < 50
19 | C/C(Nc1cc(C)n(C)n1)=C1/C(=O)Nc2cnc(-c3cnccc3C)cc21 [Example 129, (Z)-3-(1-((1,5-dimethyl-1H-pyrazol-3-yl)amino)ethylidene)-5-(4-methylpyridin-3-yl)-1H-pyrrolo[2,3-c]pyridin-2(3H)-one] | 76.4 | 82.2 | < 50
20 | CC(=O)N1CCC(n2ccc(N/C(C)=C3\C(=O)Nc4cnc(-c5cnccc5C)cc43)n2)CC1 [Example 130, (Z)-3-(1-((1-(1-Acetylpiperidin-4-yl)-1H-pyrazol-3-yl)amino)ethylidene)-5-(4-methylpyridin-3-yl)-1H-pyrrolo[2,3-c]pyridin-2(3H)-one] | 79.4 | 84.8 | < 50
21 | C/C(Nc1ccn(CC(=O)N2CCOCC2)n1)=C1/C(=O)Nc2cnc(-c3cnccc3C)cc21 [Example 131, (Z)-5-(4-Methylpyridin-3-yl)-3-(1-((1-(2-morpholino-2-oxoethyl)-1H-pyrazol-3-yl)amino)ethylidene)-1H-pyrrolo[2,3-c]pyridin-2(3H)-one] | 82.2 | 83.7 | < 50
22 | C/C(Nc1cc(C)nn1C)=C1/C(=O)Nc2cnc(-c3cnccc3C)cc21 [Example 132, (Z)-3-(1-((1,3-Dimethyl-1H-pyrazol-5-yl)amino)ethylidene)-5-(4-methylpyridin-3-yl)-1H-pyrrolo[2,3-c]pyridin-2(3H)-one] | 81 | 80.9 | 100 to 500
23 | C/C(Nc1cn(C)nc1C)=C1/C(=O)Nc2cnc(-c3cnccc3C)cc21 [Example 135, (Z)-3-(1-((1,3-Dimethyl-1H-pyrazol-4-yl)amino)ethylidene)-5-(4-methylpyridin-3-yl)-1H-pyrrolo[2,3-c]pyridin-2(3H)-one] | 78.5 | 83.9 | 50 to 100
24 | C/C(Nc1ccn(C)n1)=C1/C(=O)Nc2cnc(-c3cncc4c3OCC(=O)N4)cc21 [Example 138, (Z)-8-(3-(1-((1-Methyl-1H-pyrazol-3-yl)amino)ethylidene)-2-oxo-2,3-dihydro-1H-pyrrolo[2,3-c]pyridin-5-yl)-2H-pyrido[4,3-b][1,4]oxazin-3(4H)-one] | 90.7 |  | < 50
25 | C/C(Nc1ccn(C)n1)=C1/C(=O)Nc2cc(C#N)c(-c3cnccc3C)cc21 [Example 139, (Z)-3-(1-((1-Methyl-1H-pyrazol-3-yl)amino)ethylidene)-5-(4-methylpyridin-3-yl)-2-oxoindoline-6-carbonitrile] | 77 | 84.5 | < 50
26 | C/C(Nc1ccn(C)n1)=C1/C(=O)Nc2cnc(-c3cncc(N)c3C)cc21 [Example 140, (Z)-5-(5-Amino-4-methylpyridin-3-yl)-3-(1-((1-methyl-1H-pyrazol-3-yl)amino)ethylidene)-1H-pyrrolo[2,3-c]pyridin-2(3H)-one] | 79.8 | 91.3 | < 50
